Experimental findings from article PMC10818546, “CYP1-Activation and Anticancer Properties of Synthetic Methoxylated Resveratrol Analogues” (Molecules, 2024) are described below.

The subject of one test is MCF10A. The test can be described thus: MTT cytotoxicity assay, MCF10A non-tumour control cells. Type of test: cell-based. The conditions noted are these: Homo sapiens, MCF-10A, MTT assay, 96 h incubation, non-tumour control cells, read-out: IC50 MCF10A. As for the experimental part:
(§1) The antiproliferative activity of the resveratrol analogues was investigated using a human breast cell line panel, which has been characterised for CYP1 expression in our laboratories. IC50 values for both cis- and trans-isomers were determined using a standard 3-[4,5-dimethylthiazol-2-yl]-2,5-diphenyl tetrazolium bromide (MTT) cell viability assay and are shown in Table 1 (trans-stilbene analogues) and Table 2 (cis-stilbene analogues).
MCF10A cells are non-tumourigenic human mammary epithelial in origin which have been spontaneously immortalised without chemical intervention. CYP1 activity in MCF10A cells is negligible. […] Thus, MCF10A cell line is commonly used as a control in cytotoxicity assays.
(§2) A standard MTT (3-[4,5-dimethylthiazol-2-yl]-2,5-diphenyl tetrazolium bromide) cell viability assay was employed to evaluate the cytotoxicity of the stilbenes prepared. The MTT assay is a rapid quantitative spectrophotometric method for determining cell growth (viability) due to necrosis or apoptosis in monolayer-cultured cell lines in response to external factors. It is widely employed to evaluate the cytotoxicity of potential medicinal agents.
(§3) MCF7 cells were grown in RPMI-1640 medium with phenol red and 10% (v/v) heat-inactivated (heated to 56 °C for 45 min) foetal calf serum. MDA-468 cells were grown in RPMI-1640 medium with 10% (v/v) heat-inactivated foetal calf serum and L-glutamine (2 mM) without phenol red. MCF-10A cells were grown in Dulbecco’s modified Eagle’s medium/ Ham’s F-12 medium (1:1) with 5% (v/v) heat-inactivated foetal calf serum, epidermal growth factor (20 ng/mL), insulin ([…]) and hydrocortisone (500 ng/mL). Cells were maintained at 37 °C, 5% CO2/95% air with 100% humidity and passaged every 2–3 days using trypsin EDTA solution (0.25% w/v). Adhered cells at sub confluence were harvested for experimental use.
(§4) Aliquots of cell suspensions (100 µL at 2 × 10^3 cells per ml) were dispensed into sterile 96-well microtiter flat-bottomed plates. For the MDA468 and MCF10A cell lines, the plates were incubated at 37 °C, 5% CO2/95% air with 100% humidity for 24 h prior to the addition of test compounds. For MCF7 cells, after allowing approximately 4 h for cells to adhere, 100 µL of medium containing TCDD (from 100 mM stock in DMSO) or medium with 0.2% (v/v) DMSO was added to give a final concentration of 10 nM TCDD and 0.1% (v/v) DMSO. After 24 h, the medium was aspirated and replaced with fresh medium (100 µL) before the addition of test compounds.
(§5) Then, 100 µL aliquots of test compounds were added within 30 min into the wells from a 100 mM stock solution in DMSO and serially diluted to give final concentrations of […], 0.01, 0.003, 0.001 and 0.0003 µM. […] The cells were allowed to grow for 96 h at 5% CO2, 37 °C, to give 80–90% confluence in the control wells, after which 50 µL of 2 mg/mL MTT (final concentration 0.4 mg/mL) in sterile phosphate buffer was added to each well and the plates were further incubated for 2 h. All medium was aspirated and the formazan precipitate generated by viable cells was solubilised by 150 µL of DMSO. All the plates were vortexed and the absorbance at 540 nm was determined using a SpectraMax M5 plate reader (Molecular Devices, Wokingham, UK).
(§6) Results were expressed as a percentage of the control value versus the negative logarithm of the molar drug concentration range using GraphPad Prism (Version 5.00). Relative toxicities of each compound within each cell line were expressed as 50% of growth inhibition (IC50). All determinations were carried out in quadruplicate.

The subject of a further test is MCF7. The test can be described thus: MTT cytotoxicity assay, MCF7 cells (uninduced). In kind it is cell-based, human. To be noted: Homo sapiens, MTT assay, 96 h incubation, 37 °C, means of quadruplicate, read-out: IC50 MCF7. As for the experimental part: as §1
(§7) MCF7 cells are both ER positive and Ah receptor positive and have been well documented for their CYP1 expression, and it is known that treatment with TCDD elevates CYP1A1 and CYP1B1 expression. The cells were treated with DMSO (0.1%) for 24 h for constitutive expression, whereas for inducible CYP1 expression, the cells were treated with TCDD (10 nM) for 24 h.
as §2, §3, §4, §5, §6

In another test the test system is MCF7 (TCDD). The test can be described thus: MTT cytotoxicity assay, TCDD-induced MCF7 cells. To be noted: Homo sapiens, MCF7, MTT assay, 96 h incubation; cells induced with 10 nM TCDD for 24 h; read-out: IC50 MCF7 (TCDD). In kind it is cell-based, human. How it is done:
as §1, §7, §2, §3, §4, §5, §6
(Formazan colour is commonly taken as a measure of viable cells.)

The subject of test [1] is human breast cell line panel. The test can be described thus: MTT cytotoxicity assay, statements for all cell lines of the panel. Type of test: cell-based. To be noted: MCF7, MCF7 (TCDD), MCF10A, MDA468, summary of the text; for IC50: Homo sapiens, read-out: IC50 for all cell lines tested. How it is done:
as §1, §2, §3, §4, §5, §6

The next test relates to MDA468. Nature of the test: MTT cytotoxicity assay, MDA468 cells. In kind it is cell-based, human. To be noted: for IC50: Homo sapiens, MTT assay, 96 h incubation, read-out: IC50 MDA468; for TS = tumour selectivity = IC50 MCF10A/IC50 MDA468: ratio of IC50 values. How it is done: as §1
MDA468 cells represent an aggressive multi-drug-resistant tumour type and are ER negative but are aryl hydrocarbon (Ah) receptor positive in the presence of TCDD [46].
as §2, §3, §4, §5, §6

Where two headings read alike, the source gives them in different places.

The term IC50 denotes the concentration needed to halve the response being measured. As for `COc1ccc(C=Cc2cc(OC)c(OC)c(OC)c2)cc1O` [DMU214, 3,4,5,4′-tetramethoxy-3′-hydroxy stilbene], the IC50 in the test with MCF10A (96 h) was determined as 0.05 µM; in the test on MCF7 (MCF7, 96 h), 0.06 µM; with MCF7 (TCDD), 0.11 µM; in the test with MDA468 it was 0.05 µM. In addition, the “IC50 for all cell lines tested” value in test [1] is given as “sub-micromolar IC50 values”. Also, the “TS = tumour selectivity = IC50 MCF10A/IC50 MDA468” value in the test on MDA468 came to 1.
On to `COc1cc(C=Cc2ccc(O)c(O)c2)cc(OC)c1OC` [DMU283, 3,4,5-trimethoxy-3′,4′-dihydroxy stilbene], for which the IC50 came to 0.008 µM in the test on MCF10A (96 h); 0.02 µM in the test on MCF7 (MCF7, 96 h); 0.14 µM in the test on MCF7 (TCDD); 0.05 µM with MDA468. Moreover, the “IC50 for all cell lines tested” value in test [1] was “sub-micromolar IC50 values”. Moreover, in the test on MDA468, the “TS = tumour selectivity = IC50 MCF10A/IC50 MDA468” value amounted to 0.16.
Consider `COc1cc(/C=C/c2ccccc2)cc(OC)c1OC` [DMU507], for which the IC50 was 70 µM in the test with MCF10A (96 h); 50 µM in the test on MCF7 (MCF7, 96 h); 50 µM with MCF7 (TCDD); greater than 10 µM in test [1]; 10 µM in the test with MDA468. For the same compound, the “TS = tumour selectivity = IC50 MCF10A/IC50 MDA468” value with MDA468 was determined as 7.
Consider `COc1cc(/C=C\c2ccccc2)cc(OC)c1OC` [DMU508], for which the IC50 was 7 µM with MCF10A (96 h); 5 µM in the test on MCF7 (MCF7, 96 h); 4 µM in the test on MCF7 (TCDD); 4 to 9 µM in test [1]; 9 µM with MDA468. The “TS = tumour selectivity = IC50 MCF10A/IC50 MDA468” value in the test on MDA468 was 0.9.
Regarding `COc1ccc(/C=C/c2ccc(OC)c(OC)c2OC)cc1` [DMU547], the IC50 in the test on MCF10A turned out to be 20 µM; in the test on MCF7 (MCF7), 80 µM; in the test on MCF7 (TCDD), 1 µM; with MDA468, 4.5 µM. The “TS = tumour selectivity = IC50 MCF10A/IC50 MDA468” value with MDA468 came out at 4.
With `COc1ccc(/C=C\c2ccc(OC)c(OC)c2OC)cc1` [DMU548], the IC50 with MCF10A worked out at 100 µM; with MCF7 (MCF7), 8 µM; in the test on MCF7 (TCDD), 7.1 µM; in the test with MDA468, 30 µM.
`COc1cc(/C=C/c2ccc(Cl)cc2)cc(OC)c1OC` [DMU555]: the IC50 in the test with MCF10A amounted to 8 µM; in the test with MCF7 (MCF7), 100 µM; with MCF7 (TCDD), 100 µM; with MDA468, 12 µM. In addition, the “TS = tumour selectivity = IC50 MCF10A/IC50 MDA468” value with MDA468 was determined as 0.7.
Regarding `COc1cc(/C=C\c2ccc(Cl)cc2)cc(OC)c1OC` [DMU556], the IC50 is 35 µM with MCF10A, 0.8 µM in the test on MCF7 (MCF7), 0.8 µM with MCF7 (TCDD) and 7 µM in the test with MDA468. Further, the “TS = tumour selectivity = IC50 MCF10A/IC50 MDA468” value with MDA468 was determined as 5.
As for `COc1cc(/C=C/c2ccc(Br)cc2)cc(OC)c1OC` [DMU557], the IC50 in the test on MCF10A was 20 µM; with MCF7 (MCF7) it was 7 µM; in the test on MCF7 (TCDD), 8 µM; with MDA468 it was 7 µM. In addition, the “TS = tumour selectivity = IC50 MCF10A/IC50 MDA468” value in the test with MDA468 amounted to 3.
As for `COc1cc(/C=C\c2ccc(Br)cc2)cc(OC)c1OC` [DMU558], the IC50 came out at 0.05 µM in the test with MCF10A, 0.08 µM in the test on MCF7 (MCF7), 0.05 µM with MCF7 (TCDD) and 0.04 µM in the test with MDA468. The “TS = tumour selectivity = IC50 MCF10A/IC50 MDA468” value in the test with MDA468 is recorded as 1.
`COc1ccc2cc(/C=C/c3cc(OC)c(OC)c(OC)c3)ccc2c1` [DMU567]: the IC50 in the test on MCF10A (96 h) worked out at 0.11 µM; in the test on MCF7 (MCF7, 96 h), 100 µM; in the test on MCF7 (TCDD), 42 µM; in the test with MDA468, 0.04 µM. For the same compound, the “TS = tumour selectivity = IC50 MCF10A/IC50 MDA468” value in the test with MDA468 was “three”; in the test with MDA468 (listed as 567) it was 3.
`COc1cc(/C=C/c2ccc(OC)c3ccccc23)cc(OC)c1OC` [DMU569]: the IC50 with MCF10A came out at 40 µM; in the test on MCF7 (MCF7), 30 µM; with MCF7 (TCDD) it was 8.6 µM; in the test with MDA468 it was 4.5 µM. Also, the results for the “TS = tumour selectivity = IC50 MCF10A/IC50 MDA468” value with MDA468 and in the test on MDA468 (listed as 569) were “nine” and 9, respectively.
In the case of `COc1ccc(/C=C\c2cc(OC)c(OC)c(OC)c2)cc1OC` [DMU1024], the IC50 in the test on MCF10A (96 h) worked out at 10 µM; in the test on MCF7 (MCF7, 96 h) it was 9 µM; in the test with MCF7 (TCDD), 9 µM; with MDA468 it was 6 µM. The “TS = tumour selectivity = IC50 MCF10A/IC50 MDA468” value in the test on MDA468 is 2.
As to `COc1ccc(/C=C/c2cc(OC)c(OC)c(OC)c2)cc1OC` [DMU2417], the IC50 in the test on MCF10A (96 h) was 18 µM; in the test on MCF7 (MCF7, 96 h) it was 14 µM; with MCF7 (TCDD) it was 14 µM; in test [1], greater than 9 µM; in the test with MDA468, 9 µM. The “TS = tumour selectivity = IC50 MCF10A/IC50 MDA468” value in the test with MDA468 was 2.
`Oc1ccc(/C=C/c2cc(O)cc(O)c2)cc1` [Resveratrol, (E)-4,3′,5′-trihydroxy stilbene]: the IC50 amounted to 50 µM in the test on MCF10A, 31 µM in the test with MCF7 (MCF7), 33 µM in the test with MCF7 (TCDD) and 29 µM with MDA468. Besides, in the test with MDA468, the “TS = tumour selectivity = IC50 MCF10A/IC50 MDA468” value amounted to 1.7.
